# Where “and” joins values, the source holds several entries; their conditions need not be identical. Equal entries are not always repeated. Where two headings read alike, the source gives them in different places. Marks after values point to notes of the source that are not given here.
# Columns and labels:
# Candida albicans = assay: Checkerboard microdilution synergy (FIC); format: cell-based; settings: for MIC: Candida albicans; for MIC Combined: FLC and MM:TM in combination
# Cryptococcus neoformans = assay: Checkerboard microdilution synergy (FIC); settings: for FIC / MIC alone / MIC combo: AMB and MM:TM
# RAW 264.7 macrophages = assay: In vitro cytotoxicity (CytoTox-ONE, LDH release); settings: 12 hours
# Aspergillus spp. = assay: microbe, parasite or virus in culture
# Aspergillus terreus = assay: microbe, parasite or virus in culture
# [1] = MM:TM (40:60) with Fluconazole, isolate K1 (Fluconazole Resistant), […]10^5 cells/mL, 30° C.
# [2] = H99, […]10^5 cells/mL, 30°C, OD600 48 h, Avg.
# [3] = H99, […]10^5 cells/mL, 30°C, OD600 48 h, trial 1
# [4] = H99, […]10^5 cells/mL, 30°C, OD600 48 h, trial 2
# [5] = MM:TM (40:60) with Amp B, isolate H99 (Amp B Sensitive), […]10^5 cells/mL, 30° C.
# [6] = NM20 with Amp B, isolate H99, […] 10^5 cells/mL
# [7] = Table 41, MM:TM with Amp B, isolate H99, […] 10^5 cells/mL
compound,measurement,setting,value
"OC(Cn1cncn1)(Cn1cncn1)c1ccc(F)cc1F [FLC, fluconazole]",MIC,"Candida albicans; 48 h, K1, FLC and MM:TM, single agent, […]10^5 cells/mL, 30°C, OD600 48 h, read-out: MIC Alone",> 164 µM
same,MIC,"Candida albicans; 48 h, K1, Fluconazole and MM:TM, […]10^5 cells/mL, 30°C, OD600 48 h, Avg., read-out: MIC alone",> 163 µM
same,MIC,"Candida albicans; 48 h, K1, Fluconazole and MM:TM, […]10^5 cells/mL, 30°C, OD600 48 h, trial 1, read-out: MIC alone",> 81.6 µM
same,MIC,"Candida albicans; 48 h, K1, Fluconazole and MM:TM, […]10^5 cells/mL, 30°C, OD600 48 h, trial 2, read-out: MIC alone",> 163 µM
same,MIC,"Candida albicans; 48 h, K1, Fluconazole and MM:TM, […]10^5 cells/mL, 30°C, OD600 48 h, trial 3, read-out: MIC alone",> 81.6 µM
same,MIC,"Candida albicans; 48 h, K1, fluconazole and MM:TM, […]10^5 cells/mL, 30°C, OD600 48 h, Avg., read-out: MIC alone",> 50 µg/mL
same,MIC,"Candida albicans; 48 h, K1, fluconazole and MM:TM, […]10^5 cells/mL, 30°C, OD600 48 h, trial 1, read-out: MIC alone",> 25 µg/mL
same,MIC,"Candida albicans; 48 h, K1, fluconazole and MM:TM, […]10^5 cells/mL, 30°C, OD600 48 h, trial 2, read-out: MIC alone",> 50 µg/mL
same,MIC,"Candida albicans; 48 h, K1, fluconazole and MM:TM, […]10^5 cells/mL, 30°C, OD600 48 h, trial 3, read-out: MIC alone",> 25 µg/mL
same,MIC,Candida albicans; [1],> 50 µg/mL
same,MIC,"Candida albicans; NM20 with Fluconazole, C. albicans K1, […] 10^5 cells/mL",> 25 µg/mL
same,MIC,"Candida albicans; SC5314, 48 h, SC5314, FLC and MM:TM, single agent, […]10^5 cells/mL, 30°C, OD600 48 h, read-out: MIC Alone",< 1 µM
same,MIC,"Candida albicans; SC5314, 48 h, SC5314, Fluconazole and MM:TM, […]10^5 cells/mL, 30°C, OD600 48 h, Avg., read-out: MIC alone",< 1 µM
same,MIC,"Candida albicans; SC5314, 48 h, SC5314, Fluconazole and MM:TM, […]10^5 cells/mL, 30°C, OD600 48 h, trial 1, read-out: MIC alone",< 0.7 µM
same,MIC,"Candida albicans; SC5314, 48 h, SC5314, Fluconazole and MM:TM, […]10^5 cells/mL, 30°C, OD600 48 h, trial 2, read-out: MIC alone",< 2.6 µM
same,MIC,"Candida albicans; SC5314, 48 h, SC5314, Fluconazole and MM:TM, […]10^5 cells/mL, 30°C, OD600 48 h, trial 3, read-out: MIC alone",< 1.3 µM
same,MIC,"Candida albicans; SC5314, 48 h, SC5314, fluconazole and MM:TM, […]10^5 cells/mL, 30°C, OD600 48 h, Avg., read-out: MIC alone",< 0.3 µg/mL
same,MIC,"Candida albicans; SC5314, 48 h, SC5314, fluconazole and MM:TM, […]10^5 cells/mL, 30°C, OD600 48 h, trial 1, read-out: MIC alone",< 0.2 µg/mL
same,MIC,"Candida albicans; SC5314, 48 h, SC5314, fluconazole and MM:TM, […]10^5 cells/mL, 30°C, OD600 48 h, trial 2, read-out: MIC alone",< 0.8 µg/mL
same,MIC,"Candida albicans; SC5314, 48 h, SC5314, fluconazole and MM:TM, […]10^5 cells/mL, 30°C, OD600 48 h, trial 3, read-out: MIC alone",< 0.4 µg/mL
same,MIC,"Candida albicans; SC5314, NM20 with Fluconazole, C. albicans SC5314, […] 10^5 cells/mL",> 25 µg/mL
same,MIC,"Candida albicans; SC5314, Table 43, MM:TM with Fluconazole, isolate SC5314, […] 10^5 cells/mL",< 0.3 µg/mL
same,MIC,"Candida albicans; Table 43, MM:TM with Fluconazole, isolate K1, […] 10^5 cells/mL",> 50 µg/mL
same,MIC Combined,"Candida albicans; K1, […]10^5 cells/mL, 30°C, OD600 48 h",<1.3^i μM
same,FIC,"Candida albicans; K1, Fluconazole and MM:TM, Avg., Table 13",0.002
same,MIC combo,"Candida albicans; K1, Fluconazole and MM:TM, […]10^5 cells/mL, 30°C, OD600 48 h, Avg.",<1.3 µM
same,MIC combo,"Candida albicans; K1, Fluconazole and MM:TM, […]10^5 cells/mL, 30°C, OD600 48 h, trial 1",<1.3 µM
same,MIC combo,"Candida albicans; K1, Fluconazole and MM:TM, […]10^5 cells/mL, 30°C, OD600 48 h, trial 2",<2.6 µM
same,MIC combo,"Candida albicans; K1, Fluconazole and MM:TM, […]10^5 cells/mL, 30°C, OD600 48 h, trial 3",<1.3 µM
same,FIC,"Candida albicans; K1, Fluconazole and MM:TM, trial 1, Table 13",0.004
same,FIC,"Candida albicans; K1, Fluconazole and MM:TM, trial 2, Table 13",0.004
same,FIC,"Candida albicans; K1, Fluconazole and MM:TM, trial 3, Table 13",0.004
same,FIC,"Candida albicans; K1, fluconazole and MM:TM, Avg.",0.002
same,MIC combo,"Candida albicans; K1, fluconazole and MM:TM, […]10^5 cells/mL, 30°C, OD600 48 h, Avg.",<0.4 µg/mL
same,MIC combo,"Candida albicans; K1, fluconazole and MM:TM, […]10^5 cells/mL, 30°C, OD600 48 h, trial 1",<0.4 µg/mL
same,MIC combo,"Candida albicans; K1, fluconazole and MM:TM, […]10^5 cells/mL, 30°C, OD600 48 h, trial 2",<0.8 µg/mL
same,MIC combo,"Candida albicans; K1, fluconazole and MM:TM, […]10^5 cells/mL, 30°C, OD600 48 h, trial 3",<0.4 µg/mL
same,FIC,"Candida albicans; K1, fluconazole and MM:TM, trial 1",0.004
same,FIC,"Candida albicans; K1, fluconazole and MM:TM, trial 2",0.004
same,FIC,"Candida albicans; K1, fluconazole and MM:TM, trial 3",0.004
same,improvement in antifungal activity (fluconazole MIC in combination with copolymer),Candida albicans; K1 strain,≥ 100 fold
same,FICazole,Candida albicans; [1],0.004
same,FICazole,"Candida albicans; MM:TM (40:60) with Fluconazole, isolate SC5314 (Senstive), […]10^5 cells/mL, 30° C.",1
same,MIC Combined,"Candida albicans; SC5314, […]10^5 cells/mL, 30°C, OD600 48 h",<1.0 µM
same,FIC,"Candida albicans; SC5314, Fluconazole and MM:TM, Avg., Table 13",1
same,MIC combo,"Candida albicans; SC5314, Fluconazole and MM:TM, […]10^5 cells/mL, 30°C, OD600 48 h, Avg.",<1.0 µM
same,MIC combo,"Candida albicans; SC5314, Fluconazole and MM:TM, […]10^5 cells/mL, 30°C, OD600 48 h, trial 1",<0.7 µM
same,MIC combo,"Candida albicans; SC5314, Fluconazole and MM:TM, […]10^5 cells/mL, 30°C, OD600 48 h, trial 2",<2.6 µM
same,MIC combo,"Candida albicans; SC5314, Fluconazole and MM:TM, […]10^5 cells/mL, 30°C, OD600 48 h, trial 3",<1.3 µM
same,FIC,"Candida albicans; SC5314, Fluconazole and MM:TM, trial 1, Table 13",1
same,FIC,"Candida albicans; SC5314, Fluconazole and MM:TM, trial 2, Table 13",1
same,FIC,"Candida albicans; SC5314, Fluconazole and MM:TM, trial 3, Table 13",1
same,FIC,"Candida albicans; SC5314, fluconazole and MM:TM, Avg.",1
same,MIC combo,"Candida albicans; SC5314, fluconazole and MM:TM, […]10^5 cells/mL, 30°C, OD600 48 h, Avg.",<0.3 µg/mL
same,MIC combo,"Candida albicans; SC5314, fluconazole and MM:TM, […]10^5 cells/mL, 30°C, OD600 48 h, trial 1",<0.2 µg/mL
same,MIC combo,"Candida albicans; SC5314, fluconazole and MM:TM, […]10^5 cells/mL, 30°C, OD600 48 h, trial 2",<0.8 µg/mL
same,MIC combo,"Candida albicans; SC5314, fluconazole and MM:TM, […]10^5 cells/mL, 30°C, OD600 48 h, trial 3",<0.4 µg/mL
same,FIC,"Candida albicans; SC5314, fluconazole and MM:TM, trial 1",1
same,FIC,"Candida albicans; SC5314, fluconazole and MM:TM, trial 2",1
same,FIC,"Candida albicans; SC5314, fluconazole and MM:TM, trial 3",1
"C[C@@H]1[C@H](O)[C@@H](C)/C=C/C=C/C=C/C=C/C=C/C=C/C=C/[C@H](O[C@@H]2O[C@H](C)[C@@H](O)[C@H](N)[C@@H]2O)C[C@@H]2O[C@](O)(C[C@@H](O)C[C@@H](O)[C@H](O)CC[C@@H](O)C[C@@H](O)CC(=O)O[C@H]1C)C[C@H](O)[C@H]2C(=O)O [AMB, amphotericin B]",decrease of the MIC of AMB in combination with MM:TM,Cryptococcus neoformans; H99,> 10 fold
same,MIC Combined,"Cryptococcus neoformans; H99, AMB and MM:TM in combination, […]10^5 cells/mL, 30°C, OD600 48 h",0.16 µM
same,FIC,"Cryptococcus neoformans; H99, Avg.",0.05
same,MIC alone,Cryptococcus neoformans; [2],3.1 µg/mL
same,MIC combo,Cryptococcus neoformans; [2],0.15 µg/mL
same,MIC alone,Cryptococcus neoformans; [3],3.1 µg/mL
same,MIC combo,Cryptococcus neoformans; [3],0.2 µg/mL
same,MIC alone,Cryptococcus neoformans; [4],3.1 µg/mL
same,MIC combo,Cryptococcus neoformans; [4],0.1 µg/mL
same,MIC alone,"Cryptococcus neoformans; H99, single agent, […]10^5 cells/mL, 30°C, OD600 48 h",3.4 µM
same,FIC,"Cryptococcus neoformans; H99, trial 1",0.06
same,FIC,"Cryptococcus neoformans; H99, trial 2",0.03
same,MIC AMB alone,"Cryptococcus neoformans; H99, AMB as single agent, OD600, 48 h, 30° C.",3.4 µM
same,MIC AMB combination,"Cryptococcus neoformans; H99, AMB in combination with MM:TM, OD600, 48 h, 30° C.",0.1 µM and 0.16 µM and 0.2 µM
same,FICAMB,"Cryptococcus neoformans; H99, AMB with MM:TM",0.03 and 0.05 and 0.06
same,FICAmp B,Cryptococcus neoformans; [5],0.09
same,MIC Amp B alone,Cryptococcus neoformans; [5],1.6 µg/mL
same,MIC Amp B in combination,Cryptococcus neoformans; [5],0.15 µg/mL
same,MIC AMB alone,Cryptococcus neoformans; [6],3.1 µg/mL
same,MIC AMB in combination,Cryptococcus neoformans; [6],0.1 µg/mL
same,MIC Amp B alone,Cryptococcus neoformans; [7],1.6 µg/mL
same,MIC Amp B in combination,Cryptococcus neoformans; [7],0.15 µg/mL
same,cell death at the highest concentration tested,RAW 264.7 macrophages,less than 50%
same,concentration causing 10% cell death (IC10),RAW 264.7 macrophages,108 µM
"CCC(C)n1ncn(-c2ccc(N3CCN(c4ccc(OCC5COC(Cn6cncn6)(c6ccc(Cl)cc6Cl)O5)cc4)CC3)cc2)c1=O (stereo not drawn) [Itraconazole, itraconazole]",MIC,Aspergillus spp.,~1 µM
same,MIC,Aspergillus terreus,1.4 µM
same,MIC,Aspergillus terreus; 48 h,1 µg/mL and 1.4 µM

# — patent US20180185408A1, “ANTIFUNGAL NYLON-3 POLYMERS AND COMBINATION THERAPY USING THEM TO TREAT FUNGAL INFECTIONS” (priority 2016, published 2018)
